Results published in PubChem BioAssay AID179 (DTP/NCI, 2004).
The source made the active and inactive calls.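 Rule for the calls: active = compounds giving half or more protection of infected cells from virus-caused growth loss, again on retest; inactive = the rest.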 Where a SMILES comes first, the peptide text is derived from it.

Tested on: CEM cells HIV-1 protection, formazan growth assay
Experiment: NCI AIDS Antiviral Assay
Conditions: for IC50: measured here: growth of uninfected CEM cells
Summary of the method: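 Human CEM cells, uninfected and HIV-1-infected, received five drug concentrations, and growth was read by soluble formazan assay. Compounds giving at least 50% protection were retested; reproducible 100% protection defined confirmed active.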

Structure (SMILES) | EC50 [µM] | IC50 [µM] | outcome
N#Cc1c2c(c(Nc3ccc(F)cc3)n3c1nc1ccccc13)CCCC2 | > 200 | 81.3 | 
Cc1ccc(S(=O)(=O)OC[C@H]2CC=CC[C@H]2COS(=O)(=O)c2ccc(C)cc2)cc1 | > 200 | > 200 | 
O=C(O)C1=C(C(=O)Nc2ccccc2)C2C=CC1C2 (configuration not stated) | > 977 | 214 | 
Cc1ccc(/C=N/NS(=O)(=O)c2ccccc2)c(C)c1 |  |  | inactive
CC(C)(C)c1ccc(Br)c(CCC(=O)NO)c1 |  |  | inactive
C[N+](C)(C)CCC(=O)N1C/C(=C\c2ccccc2)C(=O)/C(=C/c2ccccc2)C1 | > 200 | 2.82 | 
COc1nc(C(=O)O)c(Cl)c(OC)c1Cl | > 513 | > 513 | 
COC(=O)CC[C@@H](NC(=O)C(C)NC(=O)COC1C(O)C(COC(=O)CCCCCCCCCCNC(=O)c2ccc([N+](=O)[O-])c3[nH]c4cc(Br)ccc4c(=O)c23)OC(OCc2ccccc2)C1NC(C)=O)C(N)=O (some centres not stated) |  |  | inactive
COC(=O)/C(C#N)=C/n1ccc(=O)[nH]c1=S | > 200 | > 200 | 
O=C(O)CCN1CCN(CCC(=O)O)CCN(CCC(=O)O)CC1 | > 200 | 18.2 | 
c1ccc(N=C2SC(=NC3CCCCC3)N(C3CCCCC3)C2=Nc2ccccc2)cc1 | > 200 | > 200 | 
CCOC(=O)c1nc2ccccc2nc1Oc1cc(OC)c(OC)c(OC)c1 | > 100 | > 100 | 
CNC(=O)SC1=NS(=O)(=O)c2ccc(Cl)cc2N1 | 51.3 | 186 | 
FC(F)(F)c1ccc2c(c1)N(CCCN1CCN(C3CC3)CC1)c1ccccc1S2 | > 200 | 33.1 | 
O=C1C(=O)c2ccccc2C(O)=C1C(C1=C(O)c2ccccc2C(=O)C1=O)c1ccccc1 | > 200 | 20.9 | 
Cc1c(-c2ccccc2)c(-c2ccc(OCCN(C)C)cc2)n2ccccc12 | > 200 | 10 | 
O=C1CC(CC(O)[C@@H]2CCCC[C@@H]2O)CC(=O)N1c1ccccc1 (some centres not stated) | > 200 | > 200 | 
CCOC(=O)c1c(SCc2cc(=O)[nH]c(=O)[nH]2)n(-c2ccccc2)c(=S)n(-c2ccccc2)c1=O | 191 | > 200 | 
CC1=Nc2ccccc2C12C(c1ccccc1)CC(=O)N1c3ccccc3CC12 (configuration not stated) | > 33.9 | > 33.9 | 
O=C1N=C2SC=C(NC(=S)Nc3ccccc3)N2NC12c1ccccc1-c1ccccc12 | > 200 | 74.1 | 
NCCCOCC(=O)O |  |  | inactive

Structure (SMILES) | EC50 [µM] | IC50 [µM] | outcome
N#C/C(C(=O)Nc1ccc(Cl)cc1)=C(/N)N1CCOCC1 | > 200 | > 200 | 
NC(=O)N/N=C1\CCCCc2ccccc21 | > 200 | > 200 | 
CC[P+](c1ccccc1)(N(C)C)N(C)C | > 200 | 112 | 
CCOC(=O)c1cn2c(n1)sc1cccc(C)c12 | > 200 | > 200 | 
O=C(Nc1ccccc1-c1nc2ccccc2[nH]c1=O)c1ccccc1 | > 52.5 | 29.5 | 
COC(=O)C1(OC(=O)Sc2ccccc2)CCN(C)CC1 | > 200 | 26.3 | 
[N-]=[N+]=NC1(Cc2ccccc2)C(=O)Nc2ccccc2C1=O (configuration not stated) | > 200 | 105 | 
CC1(C)N([O-])[N+](=O)C1(C)C | > 200 | > 200 | 
Brc1c2nc3ccccc3nc2n2ccc3ccccc3c12 | > 28.8 | > 28.8 | 
O=C1CC2c3[nH]c4ccccc4c3CCN2C2=C1CCCC2 (configuration not stated) | > 200 | 10.2 | 
CN(NC(=O)/C(=C/c1ccc2c(c1)OCO2)NC(=O)c1ccccc1)c1ccnc2cc(Cl)ccc12 | > 200 | 10.5 | 
O=C1CCCCC/C1=C\c1ccccc1 | > 200 | 52.5 | 
COc1cc2c(cc1OC)C(Cc1ccc(OC)c(OC)c1Oc1ccccc1)N(C)CC2 (configuration not stated) |  |  | inactive
CC[C@@]1(OC(=O)C(N)CCCCN)C(=O)OCc2c1cc1n(c2=O)Cc2cc3ccccc3nc2-1 (some centres not stated) | > 10 | 0.0112 | 
CC(C)(C)[Si](C)(C)OCc1cccc(OCCOc2cccc(CO[Si](C)(C)C(C)(C)C)c2[N+](=O)[O-])c1[N+](=O)[O-] | > 50.1 | > 50.1 | 
COP(=O)(OC)/C(C#N)=C/c1ccoc1 | > 1100 | > 1100 | 
N#CCCN(CCC#N)c1ccc(/C=C(/NC(=O)Nc2ccccc2Cl)NC(=O)c2cc([N+](=O)[O-])ccc2Cl)cc1 | > 12.3 | 1.91 | 
O=C1c2ccccc2-c2nccc3c2c1nc1ccccc13 | > 200 | 8.32 | 
CSc1c(C(=O)Nc2ccc(C)cc2)c(N)[nH]c(=O)c1C#N | > 95.5 | 75.9 | 
O=C1CCCSC(=O)N1Cc1ccccc1 | > 200 | > 200 | 
COC1=CC(=O)C2[C@H]3Cc4ccccc4[C@H]3C2(C)C1=O (some centres not stated) | > 51.3 | > 51.3 | 

Structure (SMILES) | EC50 [µM] | IC50 [µM] | outcome
CC(C)(CCCCC(C)(C)NC(=O)Nc1ccc(Cl)c(Cl)c1)NC(=O)Nc1ccc(Cl)c(Cl)c1 | > 200 | 8.91 | 
Cc1ccc(C2=C(c3ccccc3)C(O)(c3ccc(C)cc3)C(c3ccccc3)=C2c2ccc(C)cc2)cc1 | > 5.13 | > 5.13 | 
CCC(C)C(NC(=O)C(CC(C)C)NC(=O)C(N)Cc1c[nH]c2ccccc12)C(=O)NC(Cc1c[nH]c2ccccc12)C(=O)O (configuration not stated) (H-WLIW-OH; configuration not given here) | > 407 | > 407 | 
Cc1nn2c(=O)n(-c3cccc(-n4nnc5c(-c6ccccc6)c(C)nn5c4=O)c3C)nnc2c1-c1ccccc1 |  |  | inactive
CC1=C(c2ccccc2)NC(=S)C(C)C(c2ccccc2)=N1 (configuration not stated) | > 200 | 28.2 | 
CC(=O)Oc1cc(Cl)c(C)c2c1[C@H]1CC[C@]3(C)[C@@H](OC(C)=O)CC[C@H]3[C@@H]1CC2 | > 126 | > 126 | 
Cc1ccc(Nc2nc(C)c(C(=O)CC(=O)C(=O)Nc3ccc(Cl)cc3)s2)cc1 | > 200 | > 200 | 
CCOc1ccc(NC(=O)CCc2nnc(SC)o2)cc1 | > 162 | > 162 | 
Cc1ccccc1C(C#N)/C(=N/NC(=O)c1cc2ccccc2cc1O)C(=O)Nc1cccc(Cl)c1 (configuration not stated) | > 191 | 4.9 | 
CC(=O)OCC1OC(n2c(-c3ccc(C)cc3)cc(-c3ccccc3)c(C#N)c2=O)C(OC(C)=O)C(OC(C)=O)C1OC(C)=O (configuration not stated) | > 11.7 | > 11.7 | 
c1ccc(P(CC[As](c2ccccc2)c2ccccc2)CC[As](c2ccccc2)c2ccccc2)cc1 | > 20.9 | 2.14 | 
Clc1ccc(CN2COc3c(ccc4cccnc34)C2)c(Cl)c1 | > 200 | 1.45 | 
O=C1OC(Cc2ccccc2)(N2CCCC2=O)C1c1ccccc1 (configuration not stated) | > 112 | > 112 | 
CN(C)Cc1[nH]c(=O)[nH]c(=O)c1O | > 200 | 23.4 | 
CCOC(=O)c1c(N2CCCC2)nsc1Nc1ccccc1 | > 200 | 145 | 
NCCCNCCNCCCN | > 200 | > 200 | 
CC1=CC(C)C(=O)N(CC(C)N2CCCC2)C(C)=C1 (configuration not stated) | > 191 | 74.1 | 
Nc1ccc2c(c1)C(=O)N(OS(=O)(=O)c1ccccc1)C2=O |  |  | inactive
C=CCn1c(=S)sc2c(=O)[nH]cnc21 | > 1120 | 195 | 
CCOC(=O)COc1cccc2occc(=O)c12 |  |  | inactive
Cc1ccc2c(c1)C=CC1(O2)N(c2ccccc2)C(=S)OC1(C)C (configuration not stated) | > 200 | 22.4 | 

Structure (SMILES) | EC50 [µM] | IC50 [µM] | outcome
COC(=O)c1cc(C)ccc1C1CN=NC12Cc1c(C)cc(C)cc1C2=O (configuration not stated) | > 200 | 29.5 | 
CN(C(=O)C12C3C4C1C1C4(C#N)C3C12C(=O)O)C(C)(C)C (configuration not stated) | > 158 | > 158 | 
O=c1c2ccccc2nc(-c2ccccc2)n1NC(=S)Nc1cccc(Cl)c1 | > 33.1 | > 33.1 | 
COC(=O)c1ncc2c(=O)[nH]c3ccccc3c2c1C(=O)OC | > 16.6 | > 16.6 | 
CCCCCCCCCCCCC/C=C/C(O)C(CO)NC(=O)CCCCC (configuration not stated) |  |  | inactive
COc1ccc(S(=O)(=O)O)cc1NS(=O)(=O)c1ccc(C)cc1 | > 200 | > 200 | 
O=C(O)c1cc2ccccc2c(N=Nc2ccc(/C=C/c3ccc(N=Nc4c(O)c(C(=O)O)cc5ccccc45)cc3S(=O)(=O)O)c(S(=O)(=O)O)c2)c1O | 8.51 | 50.1 | 
CCCCCC(=O)N1SC(NC(=O)OC)=Nc2ccccc21 | > 155 | 8.32 | 
CC1=CC2C(=O)N(c3ccccc3)C(=O)C2CC1n1[nH]c(=O)n(Cc2ccccc2)c1=O (configuration not stated) | > 302 | > 302 | 
O=C(Nc1ccc(C(F)(F)F)cc1[N+](=O)[O-])C(=O)C(C(=O)c1ccc2ccccc2c1)C1OC(=O)c2ccccc21 (configuration not stated) | > 64.6 | 33.9 | 
Nc1nc(-c2ccc(Cl)cc2)nc2sc3c(c12)CCCCC3 | > 30.2 | > 30.2 | 
CC(C)CCC[C@@H](C)C1CCC2[C@@H]3CC(OS(=O)(=O)O)C4C[C@@H](O)CC[C@]4(C)C3CC[C@@]21C (some centres not stated) | > 49 | > 49 | 
N#Cc1c(-c2ccc(Cl)cc2)c2c(n(C3OC(CO)C(O)C(O)C3O)c1=S)CCCC2 (configuration not stated) | > 200 | 69.2 | 
N#C/C(=C\c1ccccc1)C(NO)Nc1ccccc1 (configuration not stated) | > 135 | 64.6 | 
COC(=O)/C(Cl)=C1/CC1COCc1ccccc1 (configuration not stated) | > 186 | 107 | 
COC(=O)C(=O)C(C(=O)OC)C(=O)C(=O)Nc1c(Cl)cc([N+](=O)[O-])cc1Cl (configuration not stated) | > 23.4 | > 23.4 | 
NC1=NS(=O)(=O)Nc2nc(-c3ccccc3)c(-c3ccccc3)nc21 | > 355 | 182 | 
C/C(=N/O)C1CC=C(S(=O)(=O)c2ccccc2)C1 (configuration not stated) |  |  | inactive
NC1=CNC(=O)C1 | > 138 | > 138 | 
CN1C(=O)Cn2c(nn(Cc3ccccc3)c(=O)c2=O)-c2cc(Cl)ccc21 | 42.7 | 67.6 | 
CC[C@@H]1C[C@H]2CC3c4c(c5cc(OC)ccc5n4C)CCN(C2)C31 |  |  | inactive
